Results reported in patent US6365607B1, “Anticachectic composition” (Takeda Chemical Industries, Ltd., priority 1996, dated 2002).
Like-named read-outs stand apart in the source and are kept apart here.

Columns and labels:
[1] = tested on: fat cells in rat epididymis adipose tissue; assay: Antilipolytic activity: glycerol released from IL-1β-treated rat fat cells; type: cell-based; conditions: read-out: antilipolytic concentration IC50
Protocol: In accordance with the method of Green et al. [Endocrinology, 134, 2581-2588 (1994)], the antilipolytic activity of the compound of the present invention was evaluated by quantitating the glycerol released from fat cells in rat epididymis adipose tissue.
Thus, the rat epididymis adipose tissue was isolated, cut into pieces with a pair of scissors, and digested into fat cells by agitating in collagenase-containing phosphate buffer for 1 hour. To a culture solution containing fat cells was added 10 ng/ml of IL-1β (manufactured by Pharmingen, PM-19101V). Then, in treatment groups, solutions of compound (2) in N,N-dimethylformamide at graded concentrations were respectively added. After 24 hours, the supernatant was recovered and the glycerol therein was quantitated with an assay kit (manufactured by Sigma, 337-A). The amount of released glycerol in each group treated with compound (2) relative to that in the control group was determined to find the inhibition rate and the 50% inhibition concentration IC50 of the compound was calculated. The antilipolytic concentration IC50 value of compound (2) was 4 nM.
The antilipolytic activity of indomethacin was evaluated by the same method as in Test Example 1. The antilipolytic concentration IC50 value of indomethacin was not less than 10 mM.

[2] = tested on: tumor-bearing mice (mouse colon cancer cell line Colon 26); assay: Weight loss inhibitory activity in tumor-bearing mice (Colon 26 cachexia model); type: in vivo; conditions: CDF1 mice
Protocol: Using the mouse colon cancer cell line Colon 26 (Tanaka et al., Cancer Research, 50, 4528-4532 (1990)), which is a system known to be high in the reproducibility of cancer cachectic symptoms, the inhibitory effect of the compound of the present invention on lipolysis and body weight loss was evaluated.
Thus, 1×10^6 Colon 26 cells were transplanted sub-dermaly in 4-week-old CDF1 mice. On day 14 after transplantation, the mice were divided into groups according to tumor size. A 5% (w/v) gum arabic suspension containing compound (2) was administered orally in a dose of 1.0 mg/kg to one group of mice and, as a control, a 5% (w/v) gum arabic suspension was similarly administered to another group, once daily for 7 days in each case. An additional group of mice was not transplanted with Colon 26 cells (normal group). On days 14, 18 and 21 after transplantation, the mice were weighed. On day 22 after transplantation, each mouse was autopsied and the epididymis adipose tissue was isolated and weighed. Changes in mouse body weight and adipose tissue weight are shown in Table 1 and Table 2, respectively.

IC50 ([1]; inhibition of glycerol release, 10 ng/ml IL-1β, 24 hours)	IC50 ([1]; same method as Test Example 1 (glycerol release, IL-1β, 24 hours))	SMILES	body weight of tumor-bearing mice, 21st Day after transplantation ([2]; 1.0 mg/kg orally once daily for 7 days from day 14)	body weight of tumor-bearing mice, 18th Day after transplantation ([2]; 1.0 mg/kg orally once daily from day 14)	body weight of tumor-bearing mice, 14th Day after transplantation ([2]; day 14 (grouping, start of dosing), 1.0 mg/kg orally once daily for 7 days)
0.004 µM		Cc1oc(-c2ccccc2)nc1C(O)COc1ccc(CC2SC(=O)NC2=O)cc1 (centres unmarked) [compound (2), 5-[4-[2-hydroxy-2-(5-methyl-2-phenyl-4-oxazolyl)ethoxy]benzyl]-2,4-thiazolidinedione]	25.6 g	26.3 g	26.3 g
	≥ 10000 µM	COc1ccc2c(c1)c(CC(=O)O)c(C)n2C(=O)c1ccc(Cl)cc1 [indomethacin, reference compound]			
